Assays:
ΔF508-CFTR [1] = target: T1, ΔF508-CFTR (Homo sapiens, UniProt P13569, DEL508-508); test: CFTR cell surface levels using HRP-tagged ΔF508-CFTR expressing CFBE cells, intrinsic corrector capacity; format: cell-based; settings: HRP-tagged ΔF508-CFTR expressing CFBE cells, intrinsic corrector capacity (no co-corrector), 33° C., 20 hours; for EC50: read-out: EC50
T1 construct: host or cells: CFBE41o-, doxycycline-inducible
Method in brief: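 Here the cells express ΔF508-CFTR with horseradish peroxidase inserted in extracellular loop 4, so only rescued channel at the surface gives luminescent signal. Compounds act on their own, 20 h at the reduced temperature of 33 °C; values are percent activity relative to DMSO and a 3 μM corrector.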

ΔF508-CFTR [2] = target: T1, ΔF508-CFTR; test: CFTR cell surface levels using HRP-tagged ΔF508-CFTR expressing CFBE cells, in the presence of a co-corrector; format: cell-based; settings: HRP-tagged ΔF508-CFTR expressing CFBE cells, in the presence of 3 μM co-corrector; for EC50: read-out: EC50
Method in brief: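 Cells were seeded with 0.5 μg/mL doxycycline and held 68 h at 37 °C. Test compounds plus 3 μM co-corrector (final 0.1% DMSO) were then added for 20 h at 33 °C. Washed cells received HRP substrate, and luminescence was normalized between DMSO and 3 μM co-corrector controls.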

T1 sequence (P13569 with tags, fused parts or gaps DEL508-508): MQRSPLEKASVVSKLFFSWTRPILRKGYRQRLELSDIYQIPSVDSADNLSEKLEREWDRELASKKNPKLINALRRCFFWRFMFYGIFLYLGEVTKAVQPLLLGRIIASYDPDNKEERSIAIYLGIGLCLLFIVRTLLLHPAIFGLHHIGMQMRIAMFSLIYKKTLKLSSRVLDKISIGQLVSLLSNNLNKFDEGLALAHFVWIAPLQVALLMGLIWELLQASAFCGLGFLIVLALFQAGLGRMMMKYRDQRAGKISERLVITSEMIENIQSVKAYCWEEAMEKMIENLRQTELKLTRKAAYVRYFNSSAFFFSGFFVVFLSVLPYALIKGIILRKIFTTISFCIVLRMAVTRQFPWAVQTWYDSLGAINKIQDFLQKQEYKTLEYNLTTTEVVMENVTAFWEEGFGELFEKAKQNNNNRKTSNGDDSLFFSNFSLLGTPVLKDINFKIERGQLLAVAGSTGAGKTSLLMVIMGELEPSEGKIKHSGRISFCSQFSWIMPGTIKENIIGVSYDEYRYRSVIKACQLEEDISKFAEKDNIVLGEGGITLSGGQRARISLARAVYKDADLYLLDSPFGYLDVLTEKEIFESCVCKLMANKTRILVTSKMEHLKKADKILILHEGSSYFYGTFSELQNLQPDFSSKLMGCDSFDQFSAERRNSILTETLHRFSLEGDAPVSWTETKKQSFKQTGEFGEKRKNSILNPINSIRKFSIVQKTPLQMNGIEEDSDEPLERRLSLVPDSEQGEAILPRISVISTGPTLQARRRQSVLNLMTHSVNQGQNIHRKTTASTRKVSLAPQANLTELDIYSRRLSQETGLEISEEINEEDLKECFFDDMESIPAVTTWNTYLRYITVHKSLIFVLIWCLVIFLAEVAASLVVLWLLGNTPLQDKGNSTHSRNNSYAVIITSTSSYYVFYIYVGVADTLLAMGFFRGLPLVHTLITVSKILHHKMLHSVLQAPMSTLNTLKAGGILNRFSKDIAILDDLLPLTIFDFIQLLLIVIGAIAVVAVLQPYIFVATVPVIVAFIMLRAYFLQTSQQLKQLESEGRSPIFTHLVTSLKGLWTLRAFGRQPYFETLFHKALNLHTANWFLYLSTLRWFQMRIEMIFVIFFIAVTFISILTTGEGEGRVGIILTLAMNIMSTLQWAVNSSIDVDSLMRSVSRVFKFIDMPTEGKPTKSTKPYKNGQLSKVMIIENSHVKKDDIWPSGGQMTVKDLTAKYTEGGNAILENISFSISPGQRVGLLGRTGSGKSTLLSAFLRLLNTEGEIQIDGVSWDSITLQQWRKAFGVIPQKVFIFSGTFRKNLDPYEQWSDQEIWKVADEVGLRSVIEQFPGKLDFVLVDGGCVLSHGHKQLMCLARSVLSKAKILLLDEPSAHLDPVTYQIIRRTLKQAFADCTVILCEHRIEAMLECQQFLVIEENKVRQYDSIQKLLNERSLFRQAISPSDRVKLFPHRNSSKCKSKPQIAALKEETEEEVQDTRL

SMILES	% Activation (ΔF508-CFTR [1]) [%]	EC50 (ΔF508-CFTR [1]) [nM]	% Activation (ΔF508-CFTR [2]) [%]	EC50 (ΔF508-CFTR [2]) [nM]
N#CC1CCN(C2CCN(c3cc(C(=O)O)nc4c3c(C3CCC3)nn4-c3ccc(F)cc3)CC2)C1 (stereo not shown) [compound 870, 4-[4-(3-cyanopyrrolidin-1-yl)piperidin-1-yl]-3-cyclobutyl-1-(4-fluorophenyl)-1H-pyrazolo[3,4-b]pyridine-6-carboxylic acid]	304.4	1040	611.45	171
N#CC1CCCN(C2CCN(c3cc(C(=O)O)nc4c3c(C3CCC3)nn4-c3ccc(F)cc3)CC2)C1 (stereo not shown) [compound 871, 4-(3-cyano[1,4′-bipiperidin]-1′-yl)-3-cyclobutyl-1-(4-fluorophenyl)-1H-pyrazolo[3,4-b]pyridine-6-carboxylic acid]	355.1	275	681.7	156
O=C(O)c1cc(N2CCC(N3CCCC(F)C3)CC2)c2c(C3CCC3)nn(-c3ccc(F)cc3)c2n1 (stereo not shown) [compound 872, 3-cyclobutyl-4-(3-fluoro[1,4′-bipiperidin]-1′-yl)-1-(4-fluorophenyl)-1H-pyrazolo[3,4-b]pyridine-6-carboxylic acid]	368.7	591	548.45	172
COC1CN(C2CCN(c3cc(C(=O)O)nc4c3c(C3CCC3)nn4-c3ccc(F)cc3)CC2)C1 [compound 873, 3-cyclobutyl-1-(4-fluorophenyl)-4-[4-(3-methoxyazetidin-1-yl)piperidin-1-yl]-1H-pyrazolo[3,4-b]pyridine-6-carboxylic acid]	139.8	3340	332.45	1850
O=C(O)c1cc(N2CCC(N3CCCC(C(F)(F)F)C3)CC2)c2c(C3CCC3)nn(-c3ccc(F)cc3)c2n1 (stereo not shown) [compound 874, 3-cyclobutyl-1-(4-fluorophenyl)-4-[3-(trifluoromethyl)[1,4′-bipiperidin]-1′-yl]-1H-pyrazolo[3,4-b]pyridine-6-carboxylic acid]	330.7	170	608.35	83
COC1CCCN(C2CCN(c3cc(C(=O)O)nc4c3c(C3CCC3)nn4-c3ccc(F)cc3)CC2)C1 (stereo not shown) [compound 875, 3-cyclobutyl-1-(4-fluorophenyl)-4-(3-methoxy[1,4′-bipiperidin]-1′-yl)-1H-pyrazolo[3,4-b]pyridine-6-carboxylic acid]	270.7	1600	450.3	819
CC1(C)CN(C2CCN(c3cc(C(=O)O)nc4c3c(C3CCC3)nn4-c3ccc(F)cc3)CC2)CCO1 [compound 876, 3-cyclobutyl-4-[4-(2,2-dimethylmorpholin-4-yl)piperidin-1-yl]-1-(4-fluorophenyl)-1H-pyrazolo[3,4-b]pyridine-6-carboxylic acid]	324.4	301	562.35	267
CN1CCN(c2ccc(-c3cc(C(=O)O)nc4c3c(C3CCC3)nn4C3CCCCC3)cn2)CC1 [compound 877, 3-cyclobutyl-1-cyclohexyl-4-[6-(4-methylpiperazin-1-yl)pyridin-3-yl]-1H-pyrazolo[3,4-b]pyridine-6-carboxylic acid]	162.65	348	374.57	605
CC(C)N1CCN(C2CCN(c3cc(C(=O)O)nc4c3c(C3CCC3)nn4-c3ccc(F)cc3)CC2)CC1 [compound 879, 3-cyclobutyl-1-(4-fluorophenyl)-4-{4-[4-(propan-2-yl)piperazin-1-yl]piperidin-1-yl}-1H-pyrazolo[3,4-b]pyridine-6-carboxylic acid]	279.6	355	446.25	196
CC(C)N1CCN(C2CCN(c3cc(C(=O)O)nc4c3c(C3CCC3)nn4C3CCCCC3)CC2)CC1 [compound 880, 3-cyclobutyl-1-cyclohexyl-4-{4-[4-(propan-2-yl)piperazin-1-yl]piperidin-1-yl}-1H-pyrazolo[3,4-b]pyridine-6-carboxylic acid]	259.5	169	446.95	693
CC(C)Oc1nn(C2CCCCC2)c2nc(C(=O)O)cc(-c3ccc(N4CCN(C)CC4)cc3)c12 [compound 883, 1-cyclohexyl-4-[4-(4-methylpiperazin-1-yl)phenyl]-3-[(propan-2-yl)oxy]-1H-pyrazolo[3,4-b]pyridine-6-carboxylic acid]	160.6	330	380.9	238
CC(C)Oc1nn(C2CCCCC2)c2nc(C(=O)O)cc(-c3ccc(CN4CCN(C5CC5)CC4)cc3)c12 [compound 884, 1-cyclohexyl-4-{4-[(4-cyclopropylpiperazin-1-yl)methyl]phenyl}-3-[(propan-2-yl)oxy]-1H-pyrazolo[3,4-b]pyridine-6-carboxylic acid]	140.6	298	377.6	214
O=C(O)c1cc(N2CCC(N3CCOCC3)CC2)c2c(C3CCC3)nn(-c3ccnc(O)c3)c2n1 [compound 885, 3-cyclobutyl-1-(2-hydroxypyridin-4-yl)-4-[4-(morpholin-4-yl)piperidin-1-yl]-1H-pyrazolo[3,4-b]pyridine-6-carboxylic acid]	66.2	3340	255.5	2450
O=C(O)c1cc(N2CCC(N3CCOCC3)CC2)c2c(C3CCC3)nn(-c3ccnc(OC(F)F)c3)c2n1 [compound 889, 3-cyclobutyl-1-[2-(difluoromethoxy)pyridin-4-yl]-4-[4-(morpholin-4-yl)piperidin-1-yl]-1H-pyrazolo[3,4-b]pyridine-6-carboxylic acid]	229.2	404	449.8	241
CCOC(=O)N1CCN(C2CCN(c3cc(C(=O)O)nc4c3c(C3CCC3)nn4-c3ccc(F)cc3)CC2)CC1 [compound 891, 3-cyclobutyl-4-{4-[4-(ethoxycarbonyl)piperazin-1-yl]piperidin-1-yl}-1-(4-fluorophenyl)-1H-pyrazolo[3,4-b]pyridine-6-carboxylic acid]	367.25	93.1	564.5	51
O=C(O)c1cc(CN2CCC(N3CCOCC3)CC2)c2c(C3CCC3)nn(-c3ccc(F)cc3)c2n1 [compound 893, 3-Cyclobutyl-1-(4-fluoro-phenyl)-4-(4-morpholin-4-yl-piperidin-1-ylmethyl)-1H-pyrazolo[3,4-b]pyridine-6-carboxylic acid]	55.75	3140	236.6	3330
COCCN(C)C1CCN(c2cc(C(=O)O)nc3c2c(C2CCC2)nn3-c2ccc(F)cc2)CC1 [compound 895, 3-cyclobutyl-1-(4-fluorophenyl)-4-{4-[(2-methoxyethyl)(methyl)amino]piperidin-1-yl}-1H-pyrazolo[3,4-b]pyridine-6-carboxylic acid]	178.2	1280	429.4	3330
COCCN1CCN(C2CCN(c3cc(C(=O)O)nc4c3c(C3CCC3)nn4-c3ccc(F)cc3)CC2)CC1 [compound 896, 3-cyclobutyl-1-(4-fluorophenyl)-4-{4-[4-(2-methoxyethyl)piperazin-1-yl]piperidin-1-yl}-1H-pyrazolo[3,4-b]pyridine-6-carboxylic acid]	358.8	1630	513.5	700
O=C(O)c1cc(N2CCC(N3CCN(C4COC4)CC3)CC2)c2c(C3CCC3)nn(-c3ccc(F)cc3)c2n1 [compound 899, 3-cyclobutyl-1-(4-fluorophenyl)-4-{4-[4-(oxetan-3-yl)piperazin-1-yl]piperidin-1-yl}-1H-pyrazolo[3,4-b]pyridine-6-carboxylic acid]	210.9	3100	351.9	309
CC(C)N1CCC2CN(c3cc(C(=O)O)nc4c3c(C3CCC3)nn4-c3ccc(F)cc3)CCC21 (stereo not shown) [compound 900, 3-cyclobutyl-1-(4-fluorophenyl)-4-[1-(propan-2-yl)octahydro-5H-pyrrolo[3,2-c]pyridin-5-yl]-1H-pyrazolo[3,4-b]pyridine-6-carboxylic acid]	183.97	433	389.73	216
O=C(O)c1cc(N2CCC3C(CCN3C3CCC3)C2)c2c(C3CCC3)nn(-c3ccc(F)cc3)c2n1 (stereo not shown) [compound 901, 3-cyclobutyl-4-(1-cyclobutyloctahydro-5H-pyrrolo[3,2-c]pyridin-5-yl)-1-(4-fluorophenyl)-1H-pyrazolo[3,4-b]pyridine-6-carboxylic acid]	199.2	87.6	432.3	151
O=C(O)c1cc(N2CCC3C(CCN3C3COC3)C2)c2c(C3CCC3)nn(-c3ccc(F)cc3)c2n1 (stereo not shown) [compound 902, 3-cyclobutyl-1-(4-fluorophenyl)-4-[1-(oxetan-3-yl)octahydro-5H-pyrrolo[3,2-c]pyridin-5-yl]-1H-pyrazolo[3,4-b]pyridine-6-carboxylic acid]	193.9	230	411.75	114
